This is an account of results in PubChem BioAssay AID330 (DTP/NCI, 2004).

Structures are written as SMILES. Values joined by “and” are separate entries in the source; they are usually repeats but may differ in a detail not shown here. Identical values can stand only once. Inconclusive results and toxic doses are left out.

The assay concerns P388 leukemia ip, CD2F1 mice, survival T/C. Nature of the assay: NCI In Vivo Anticancer Drug Screen. Data for tumor model P388 Leukemia (intraperitoneal) in CD2F1 (CDF1) mice. Conditions: endpoint: median survival time, higher = longer survival. The essentials:
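Mice carrying the transplanted tumor received test compound or vehicle. Survival was recorded in each group, and the value is the treated-group measurement divided by that of the vehicle-treated control group.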

Setting [1] is: dose: 50.0 mg/kg/injection, schedule: Q01DX009 (ip), vehicle: Klucel (hydroxypropylcellulose) (HPC).
[2] abbreviates: dose: 100.0 mg/kg/injection, schedule: Q01DX009 (ip), vehicle: Klucel (hydroxypropylcellulose) (HPC).
Setting [3] is: dose: 200.0 mg/kg/injection, schedule: Q01DX009 (ip), vehicle: Klucel (hydroxypropylcellulose) (HPC).
[4] abbreviates: dose: 50.0 mg/kg/injection, schedule: Q04DX003 (ip), vehicle: saline with Tween-80.
Where [5] appears, read: dose: 12.5 mg/kg/injection, schedule: Q01DX009 (ip), vehicle: Klucel (hydroxypropylcellulose) (HPC).
The mark [6] stands for this setting: dose: 25.0 mg/kg/injection, schedule: Q01DX009 (ip), vehicle: Klucel (hydroxypropylcellulose) (HPC).
Where [7] appears, read: dose: 50.0 mg/kg/injection, schedule: Q01DX005 (ip), vehicle: Klucel (hydroxypropylcellulose) (HPC).
The mark [8] stands for this setting: dose: 100.0 mg/kg/injection, schedule: Q01DX005 (ip), vehicle: Klucel (hydroxypropylcellulose) (HPC).
Setting [9] is: dose: 200.0 mg/kg/injection, schedule: Q01DX005 (ip), vehicle: Klucel (hydroxypropylcellulose) (HPC).
The mark [10] stands for this setting: dose: 100.0 mg/kg/injection, schedule: Q04DX003 (ip), vehicle: Klucel (hydroxypropylcellulose) (HPC).
Setting [11] is: dose: 100.0 mg/kg/injection, schedule: Q01DX009 (ip), vehicle: saline.
Where [12] appears, read: dose: 200.0 mg/kg/injection, schedule: Q01DX009 (ip), vehicle: saline.
The mark [13] stands for this setting: dose: 50.0 mg/kg/injection, schedule: Q01DX009 (ip), vehicle: saline.

Take `CCN(CC)c1cccc(Nc2nc3ccccc3s2)c1`: the T/C runs as follows: (dose: 60.0 mg/kg/injection, schedule: Q01DX005 (ip), vehicle: Klucel (hydroxypropylcellulose) (HPC)) 97 % of control; (dose: 120.0 mg/kg/injection, schedule: Q01DX005 (ip), vehicle: Klucel (hydroxypropylcellulose) (HPC)) 88 % of control; (dose: 240.0 mg/kg/injection, schedule: Q01DX005 (ip), vehicle: Klucel (hydroxypropylcellulose) (HPC)) 93 % of control.
Regarding `CCOC(=O)CCCCCN(/C=C(\C)CN1c2c(nc(N)[nH]c2=O)NCC1CNc1ccc(C(=O)NC(CCC(=O)O)C(=O)O)cc1)C(C)=O` (centres undefined), the T/C reads like this: (dose: 50.0 mg/kg/injection, schedule: Q01DX001 (ip), vehicle: sodium bicarbonate) 99 % of control; (dose: 100.0 mg/kg/injection, schedule: Q01DX001 (ip), vehicle: sodium bicarbonate) 100 % of control; (dose: 200.0 mg/kg/injection, schedule: Q01DX001 (ip), vehicle: sodium bicarbonate) 100 % of control.
As for `Cc1c(NC(=S)Nc2ccc(Cl)c(Cl)c2)c(=O)n(-c2ccccc2)n1C`, the T/C reads like this: under setting [1], 106 % of control; under setting [2], 93 % of control; under setting [3], 88 % of control.
As to `Cc1cc(NCCCCCCNc2cc(C)nc3cc(N)ccc23)c2ccc(N)cc2n1`, the T/C (dose: 25.0 mg/kg/injection, schedule: Q01DX009 (ip), vehicle: other) is 150 % of control and 158 % of control.
Consider `CNC(C)C#N` (centres undefined), for which the T/C reads like this: (dose: 3.75 mg/kg/injection, schedule: Q01DX005 (ip), vehicle: saline) 94 % of control; (dose: 7.5 mg/kg/injection, schedule: Q01DX005 (ip), vehicle: saline) 100 % of control; (dose: 15.0 mg/kg/injection, schedule: Q01DX005 (ip), vehicle: saline) 102 % of control.
As to `C/C(=C\N1CCN(c2ccc(F)cc2)CC1)C(=O)c1ccc(F)cc1`, the T/C is, setting by setting: under setting [4], 101 % of control; (dose: 100.0 mg/kg/injection, schedule: Q04DX003 (ip), vehicle: saline with Tween-80) 99 % of control; (dose: 200.0 mg/kg/injection, schedule: Q04DX003 (ip), vehicle: saline with Tween-80) 98 % of control; (dose: 400.0 mg/kg/injection, schedule: Q04DX003 (ip), vehicle: saline with Tween-80) 117 % of control.
For the compound `CSc1nc2c(NN)ncnc2s1`, the T/C reads like this: (dose: 80.5 mg/kg/injection, schedule: Q01DX001 (ip), vehicle: distilled water + alcohol) 106 % of control; (dose: 161.0 mg/kg/injection, schedule: Q01DX001 (ip), vehicle: distilled water + alcohol) 102 % of control; (dose: 322.0 mg/kg/injection, schedule: Q01DX001 (ip), vehicle: distilled water + alcohol) 102 % of control.
Take `O=S(=O)(NCc1ccccc1)c1ccccc1`: the T/C reads like this: under setting [5], 104 % of control; under setting [6], 94 % of control; under setting [1], 95 % of control; under setting [2], 104 % of control; under setting [3], 106 % of control.
In the case of `O=S(=O)(Cc1ccccc1)C(c1ccccc1)S(=O)(=O)Cc1ccccc1`, the T/C under setting [1] is 96 % of control, the T/C under setting [2] was 91 % of control and the T/C under setting [3] is 100 % of control.
Consider `CC(SSc1ccc(C(C)(C)C)cc1)c1ccccc1` (centres undefined), for which the T/C runs as follows: under setting [7], 96 % of control; under setting [8], 104 % of control; under setting [9], 109 % of control.
With `COC(=S)SSC(=S)NCC(C)NC(=S)SSC(=S)OC` (centres undefined), the T/C by setting is: under setting [7], 103 % of control; under setting [8], 103 % of control; under setting [9], 105 % of control.
With `O=c1c2ccccc2nnn1O`, the T/C under setting [10] is 108 % of control and the T/C (dose: 200.0 mg/kg/injection, schedule: Q04DX003 (ip), vehicle: Klucel (hydroxypropylcellulose) (HPC)) is 108 % of control.
Turning to `CC(=O)Nc1ccc(S(=O)(=O)N/N=c2/sc3ccccc3n2C)cc1N`, the T/C by setting is: (dose: 6.25 mg/kg/injection, schedule: Q01DX009 (ip), vehicle: saline) 96 % of control; (dose: 12.5 mg/kg/injection, schedule: Q01DX009 (ip), vehicle: saline) 103 % of control; (dose: 25.0 mg/kg/injection, schedule: Q01DX009 (ip), vehicle: saline) 100 % of control; under setting [11], 88 % of control; under setting [12], 92 % of control.
Turning to `CCCCCCCC#CC1(C(O)CC)Sc2ccccc2N1C` (centres undefined), the T/C reads like this: (dose: 60.0 mg/kg/injection, schedule: Q01DX005 (ip), vehicle: saline with Tween-80) 107 % of control; (dose: 120.0 mg/kg/injection, schedule: Q01DX005 (ip), vehicle: saline with Tween-80) 101 % of control; (dose: 240.0 mg/kg/injection, schedule: Q01DX005 (ip), vehicle: saline with Tween-80) 105 % of control.
Regarding `CN(C)CCCN1C=CC(=C2C(=O)c3ccccc3C2=O)C=C1`, the T/C is 88 % of control under setting [1], 86 % of control under setting [2] and 97 % of control under setting [3].
With `CCN(CC)CC(C)(C)C(=O)/C=C/c1ccc(C)cc1`, the T/C by setting is: (dose: 60.0 mg/kg/injection, schedule: Q01DX005 (ip), vehicle: saline) 103 % of control; (dose: 120.0 mg/kg/injection, schedule: Q01DX005 (ip), vehicle: saline) 103 % of control; (dose: 240.0 mg/kg/injection, schedule: Q01DX005 (ip), vehicle: saline) 110 % of control.
Turning to `COC1=C(N)C(=O)c2nc(-c3ccccc3N)ccc2C1=O`, the T/C reads like this: under setting [13], 121 % of control; under setting [11], 120 % of control.
For the compound `C/C=C/C(=O)Sc1ccccc1`, the T/C by setting is: under setting [5], 108 % of control; under setting [6], 105 % of control; under setting [1], 101 % of control and 105 % of control.
For the compound `COC(=O)/C=C1\C=CC=CC12C(C(=O)OC)c1ccccc1C(C(=O)OC)C2C(=O)OC` (centres undefined), the T/C was 100 % of control (dose: 12.5 mg/kg/injection, schedule: Q01DX009 (ip), vehicle: saline with Tween-80); 99 % of control (dose: 25.0 mg/kg/injection, schedule: Q01DX009 (ip), vehicle: saline with Tween-80); 100 % of control (dose: 50.0 mg/kg/injection, schedule: Q01DX009 (ip), vehicle: saline with Tween-80).
As to `COC(=N)C(Cl)(Cl)Cl`, the T/C runs as follows: under setting [13], 97 % of control; under setting [11], 100 % of control; under setting [12], 95 % of control.
As for `N=C(N)Sc1ccccn1`, the T/C was 94 % of control under setting [11] and 101 % of control under setting [12].
`Cc1nc2nc(N)nc(N)c2nc1Sc1ccc(Cl)cc1`: the T/C (dose: 25.0 mg/kg/injection, schedule: Q04DX003 (ip), vehicle: saline with Tween-80) was 94 % of control and the T/C under setting [4] was 90 % of control.
Take `O=CC(=O)c1ccc(O)cc1`: the T/C by setting is: (dose: 18.8 mg/kg/injection, schedule: Q04DX003 (ip), vehicle: saline) 101 % of control; (dose: 37.5 mg/kg/injection, schedule: Q04DX003 (ip), vehicle: saline) 100 % of control; (dose: 75.0 mg/kg/injection, schedule: Q04DX003 (ip), vehicle: saline) 103 % of control; (dose: 150.0 mg/kg/injection, schedule: Q04DX003 (ip), vehicle: saline) 109 % of control.
Turning to `CC(=O)Oc1c2ccsc2cc2sccc12`, the T/C is, setting by setting: (dose: 12.5 mg/kg/injection, schedule: Q04DX003 (ip), vehicle: Klucel (hydroxypropylcellulose) (HPC)) 95 % of control; (dose: 25.0 mg/kg/injection, schedule: Q04DX003 (ip), vehicle: Klucel (hydroxypropylcellulose) (HPC)) 94 % of control; (dose: 50.0 mg/kg/injection, schedule: Q04DX003 (ip), vehicle: Klucel (hydroxypropylcellulose) (HPC)) 94 % of control; under setting [10], 100 % of control.
`CN(C)C[C@@H]1OCCOCCO[C@@H](CN(C)C)[C@H](CN(C)C)OCCOCCO[C@H]1CN(C)C`: the T/C (dose: 50.0 mg/kg/injection, schedule: Q01DX005 (ip), vehicle: saline) is 98 % of control; the T/C (dose: 100.0 mg/kg/injection, schedule: Q01DX005 (ip), vehicle: saline) is 88 % of control; the T/C (dose: 200.0 mg/kg/injection, schedule: Q01DX005 (ip), vehicle: saline) was 90 % of control.
With `C1CCC2(CC1)SSC1(CCCCC1)S2`, the T/C (dose: 100.0 mg/kg/injection, schedule: Q04DX003 (ip), vehicle: other) is 109 % of control; the T/C (dose: 200.0 mg/kg/injection, schedule: Q04DX003 (ip), vehicle: other) is 109 % of control; the T/C (dose: 400.0 mg/kg/injection, schedule: Q04DX003 (ip), vehicle: other) is 113 % of control.
